The assay has as its target T1, human CRHR2 (Homo sapiens, UniProt Q13324).
T1 construct: expressed in transfected cells
T1 sequence (Q13324 1-411): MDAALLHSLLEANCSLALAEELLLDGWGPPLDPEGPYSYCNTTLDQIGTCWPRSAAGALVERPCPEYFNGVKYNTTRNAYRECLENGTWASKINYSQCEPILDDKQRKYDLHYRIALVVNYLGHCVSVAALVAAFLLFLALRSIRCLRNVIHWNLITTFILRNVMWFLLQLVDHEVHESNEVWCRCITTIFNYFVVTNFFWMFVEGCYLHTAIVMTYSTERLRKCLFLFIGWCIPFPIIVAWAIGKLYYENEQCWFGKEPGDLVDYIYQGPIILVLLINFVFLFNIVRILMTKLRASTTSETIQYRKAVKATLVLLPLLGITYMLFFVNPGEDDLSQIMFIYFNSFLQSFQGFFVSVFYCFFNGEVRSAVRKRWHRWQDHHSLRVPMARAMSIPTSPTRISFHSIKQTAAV
Put plainly: cAMP assay in h-CRHR2 transfected SK-N-MC cells. In kind it is cell-based. The settings on record: for Log DR: Table 13, h-SCP control pA50 minus test compound pA50 within same assay batch; for nH: Table 12, Hill slope. On the procedure: The concentration required for 50% maximum effect (A50) was 0.4 nM.
Human CRHR1 (accession number X72304) or CRHR2 (accession number U34587) were cloned into pcDNA3.1/Zeo expression vector and stably transfected into SK-N-MC cells by electroporation. Cells were maintained in MEM w/Earl's Salt with 10% FBS, 50 I.U. penicillin, 50 μg/ml streptomycin, 2 mM L-glutamine, 1 mM sodium pyruvate and 0.1 mM nonessential amino acids, 600 μg/ml G418. Cells were grown at 37° C. in 5% CO2.
Cells were plated in 96-well tissue culture dishes (Biocoat from BD Biosciences) overnight at 50,000 cell/well. Cells were washed with PBS then resuspended in DMEM F-12 without phenol red, containing 10 μM isobutylmethylxanthine (IBMX). Cells were incubated with the peptides at concentrations ranging from 1 pM to 10 μM for 60 min at 37° Celsius. […] Forskolin (10 μM), a direct stimulant of adenylate cyclase, was used as positive control. The assays were stopped by the addition of 0.5 M HCl and mixing by orbital rotation for 2 h at 4° Celsius.
To assess the activity of the inventive peptide at the CRHR2, an intracellular cAMP measurement test using a Flash plate radioactive assay (Catalog No. Cus56088; Perkin Elmer, MA, U.S.A.) was employed.
Transfected SK-N-MC cells were plated in 96-well Biocoat tissue culture dishes (BD Biosciences, San Jose, Calif., U.S.A) overnight at 50,000 cell/well. Cells were first washed with PBS and then suspended with DMEM/F-12 without phenol red, containing […]. Suspended cells were transferred into a 96-well flash plate coated with scintillant fluid. Cells were incubated with peptides ranging from […], for 60 min, at 37° Celsius. Forskolin at 10 μM was used as positive control. After ligand stimulation, cells were lysed by the addition of 0.5M HCl and mixed by orbital rotation for 2 h at 4° Celsius in order to release intracellular cAMP into the media.
Media containing released intracellular cAMP was transferred to a 96-well flash plate coated with scintillant fluid containing an anti-cAMP antibody. In this assay, intracellular cAMP competes with ^125I-labeled cAMP binding to the antibody. To generate a standard curve, cAMP ranging from 2.5 to 250 pmoles/ml was included in the experiment. [^125I]-cAMP was measured on a TopCount scintillation counter (Perkin Elmer, MA, U.S.A).
Individual agonist concentration-response curve data were fitted to the Hill equation, see formula below, using GraphPad Prism (Graphpad Software, La Jolla, Calif., U.S.A.), to provide estimates of agonist concentration needed to generate one-half maximal response (A50), and the maximal asymptote (α) and Hill slope (nH) parameters. In this equation, [A] is the agonist concentration and E is the measured effect:
For display purposes the mean fitted parameter estimates were used to generate a single E/[A] curve shown superimposed on the mean experimental data. Potency estimates for agonists, pA50, are expressed as the negative logarithm of the midpoint of each curve and listed with their standard error of measurement (SEM). Logarithm base 10 of the agonist dose ratio (Log DR) values were calculated by subtraction of the test compound pA50 value from the corresponding h-SCP (SEQ ID NO:1) control pA50 value within the same assay batch. The SEM values of the Log DR values are given by the square root of the sum of the squared SEM values of the h-SCP (SEQ ID NO:1) control and test compound pA50 values.
Human and rat peptides (see Table 10) were used on the stimulation of h-CRHR1 or h-CRHR2 transfected SK-N-MC cells in the cAMP flash plate assay. Peptides were incubated for 1 hr at 37° Celsius. Curves were calculated using non-linear regression sigmoidal concentration-response analysis calculation in GraphPad Prism. The so obtained pA50 values are shown in Table 11 in addition to literature values. […]
A general note: Changes in cAMP serve as a functional read-out for many G protein-coupled receptors.

The values below come from patent US10040838B2, “CRHR2 peptide agonists and uses thereof” (JANSSEN PHARMACEUTICA NV, priority 2008, dated 2018).

Residues, ends and D or L forms follow the SMILES beside them. No end group written: not given here. *: point of attachment. Succinimide(1-Et,3-yl) = CCN1C(=O)CC(*)C1=O

In the case of “TKFTLSLDVPTNIMNLLFNIAKAKNLRAQCAANAHLMAQI-NH2 [SEQ ID NO: 31, TKFTLSLDVPTNIMNLLFNIAKAKNLRAQCAANAHLMAQI-NH2]”, the “Log DR” value is 1.61. On the same count and under the same terms, the figure for `CC[C@H](C)[C@H](NC(=O)[C@H](CCC(N)=O)NC(=O)[C@H](C)NC(=O)[C@H](CCSC)NC(=O)[C@H](CC(C)C)NC(=O)[C@H](Cc1c[nH]cn1)NC(=O)[C@H](C)NC(=O)[C@H](CC(N)=O)NC(=O)[C@H](C)NC(=O)[C@H](C)NC(=O)[C@H](C)NC(=O)[C@H](CCC(N)=O)NC(=O)[C@H](C)NC(=O)[C@H](CCCNC(=N)N)NC(=O)[C@H](CSC1CC(=O)N(CC)C1=O)NC(=O)[C@H](CC(N)=O)NC(=O)[C@H](CCCCN)NC(=O)[C@H](C)NC(=O)[C@H](CCCCN)NC(=O)[C@H](C)NC(=O)[C@@H](NC(=O)[C@H](CC(N)=O)NC(=O)[C@H](Cc1ccccc1)NC(=O)[C@H](CC(C)C)NC(=O)[C@H](CC(C)C)NC(=O)[C@H](CC(N)=O)NC(=O)[C@H](CCSC)NC(=O)[C@@H](NC(=O)[C@H](CC(N)=O)NC(=O)[C@@H](NC(=O)[C@@H]1CCCN1C(=O)[C@@H](NC(=O)[C@H](CC(=O)O)NC(=O)[C@H](CC(C)C)NC(=O)[C@H](CO)NC(=O)[C@H](CC(C)C)NC(=O)[C@@H](NC(=O)[C@H](Cc1ccccc1)NC(=O)[C@H](CCCCN)NC(=O)[C@@H](N)[C@@H](C)O)[C@@H](C)O)C(C)C)[C@@H](C)O)[C@@H](C)CC)[C@@H](C)CC)C(N)=O` (stereo partly shown) [SEQ ID NO: 48, TKFTLSLDVPTNIMNLLFNIAKAKNC(-NES)RAQA AANAH LMAQI-NH2] (H-TKFTLSLDVPTNIMNLLFNIAKAKNC(Succinimide(1-Et,3-yl))RAQAAANAHLMAQI-NH2; N-terminus assumed) is 0.03; for “TKFTLSLDVPTNIMNLLCNIAKAKNLRAQAAANAHLMAQI-NH2 [SEQ ID NO: 19, TKFTLSLDVPTNIMNLLCNIAKAKNLRAQAAANAHLMAQI-NH2]” it is 1.67. Same read-out and setting: the figure for “TKFTLSCDVPTNIMNLLFNIAKAKNLRAQAAANAHLMAQI-NH2 [SEQ ID NO: 8, TKFTLSCDVPTNIMNLLFNIAKAKNLRAQAAANAHLMAQI-NH2]” is 2.86. Still for that read-out and setting: the figure for “TKFTLSLCVPTNIMNLLFNIAKAKNLRAQAAANAHLMAQI-NH2 [SEQ ID NO: 9, TKFTLSLCVPTNIMNLLFNIAKAKNLRAQAAANAHLMAQI-NH2]” is 1.89; for “TKFTLSLDVPTNIMNCLFNIAKAKNLRAQAAANAHLMAQI-NH2 [SEQ ID NO: 17, TKFTLSLDVPTNIMNCLFNIAKAKNLRAQAAANAHLMAQI-NH2]” it is 0.02; for `CC[C@H](C)[C@H](NC(=O)[C@H](CCC(N)=O)NC(=O)[C@H](C)NC(=O)[C@H](CCSC)NC(=O)[C@H](CC(C)C)NC(=O)[C@H](Cc1c[nH]cn1)NC(=O)[C@H](C)NC(=O)[C@H](CC(N)=O)NC(=O)[C@H](C)NC(=O)[C@H](C)NC(=O)[C@H](C)NC(=O)[C@H](CCC(N)=O)NC(=O)[C@H](C)NC(=O)[C@H](CCCNC(=N)N)NC(=O)[C@H](CC(C)C)NC(=O)[C@H](CC(N)=O)NC(=O)[C@H](CCCCN)NC(=O)[C@H](C)NC(=O)[C@H](CCCCN)NC(=O)[C@H](C)NC(=O)[C@@H](NC(=O)[C@H](CC(N)=O)NC(=O)[C@H](Cc1ccccc1)NC(=O)[C@H](CC(C)C)NC(=O)[C@H](CSC1CC(=O)N(CC)C1=O)NC(=O)[C@H](CC(N)=O)NC(=O)[C@H](CCSC)NC(=O)[C@@H](NC(=O)[C@H](CC(N)=O)NC(=O)[C@@H](NC(=O)[C@@H]1CCCN1C(=O)[C@@H](NC(=O)[C@H](CC(=O)O)NC(=O)[C@H](CC(C)C)NC(=O)[C@H](CO)NC(=O)[C@H](CC(C)C)NC(=O)[C@@H](NC(=O)[C@H](Cc1ccccc1)NC(=O)[C@H](CCCCN)NC(=O)[C@@H](N)[C@@H](C)O)[C@@H](C)O)C(C)C)[C@@H](C)O)[C@@H](C)CC)[C@@H](C)CC)C(N)=O` (stereo partly shown) [SEQ ID NO: 54, TKFTL SLDVP TNIMN C(-NES)LFNI AKAKN LRAQA AANAH LMAQI-NH2] (H-TKFTLSLDVPTNIMNC(Succinimide(1-Et,3-yl))LFNIAKAKNLRAQAAANAHLMAQI-NH2; N-terminus assumed) it is −0.08. As for “TKFTCSLDVPTNIMNLLFNIAKAKNLRAQAAANAHLMAQI-NH2 [SEQ ID NO: 6, TKFTCSLDVPTNIMNLLFNIAKAKNLRAQAAANAHLMAQI-NH2]”, the “Log DR” value came to 0.61. On to “TKFTLSLDVPTNIMNLLFNIAKAKNLRAQAAANAHLMACI-NH2 [SEQ ID NO: 40, TKFTLSLDVPTNIMNLLFNIAKAKNLRAQAAANAHLMACI-NH2]”, for which the “Log DR” value is 0.55. As to “TKFTLSLDVPTNICNLLFNIAKAKNLRAQAAANAHLMAQI-NH2 [SEQ ID NO: 15, TKFTLSLDVPTNICNLLFNIAKAKNLRAQAAANAHLMAQI-NH2]”, the “Log DR” value worked out at 0.90.

In turn, “TKFTLSLDVPTNIMNLLFNIAKAKNLRAQAAANAHLMAQI-OH [SEQ ID NO: 113, TKFTLSLDVPTNIMNLLFNIAKAKNLRAQAAANAHLMAQI, reference compound]” showed a nH of 1.07. For the same compound, under “versus h-SCP (SEQ ID NO:1)”, the “fold less potent than the amidated parent peptide” value was “approximately 200 fold”. Consider “TKFTLSLDVPCNIMNLLFNIAKAKNLRAQAAANAHLMAQI-NH2 [SEQ ID NO: 12, TKFTLSLDVPCNIMNLLFNIAKAKNLRAQAAANAHLMAQI-NH2]”, for which the “Log DR” value worked out at 1.72. In the case of “TKFTLSLDVPTNIMNLLFNIAKAKNLRAQAAANCHLMAQI-NH2 [SEQ ID NO: 35, TKFTLSLDVPTNIMNLLFNIAKAKNLRAQAAANCHLMAQI-NH2]”, the “Log DR” value came to 0.70. “TKFTLSLDVPTNIMNLLFNIAKAKNLRAQAAANACLMAQI-NH2 [SEQ ID NO: 36, TKFTLSLDVPTNIMNLLFNIAKAKNLRAQAAANACLMAQI-NH2]”: the “Log DR” value was 0.42.

Turning to “TLSLDVPTNIMNLLFNIAKAKNLRAQAAANAHLMAQI-NH2 [SEQ ID NO: 108, TLSLDVPTNIMNLLFNIAKAKNLRAQAAANAHLMAQI-NH2]”, the nH is 0.82. For “TKFTLSLDVPTNIMNLLFNCAKAKNLRAQAAANAHLMAQI-NH2 [SEQ ID NO: 21, TKFTLSLDVPTNIMNLLFNCAKAKNLRAQAAANAHLMAQI-NH2]”, the “Log DR” value was found to be 0.77. Still for that read-out and setting: with “TKFTLSLDVPTNIMCLLFNIAKAKNLRAQAAANAHLMAQI-NH2 [SEQ ID NO: 16, TKFTLSLDVPTNIMCLLFNIAKAKNLRAQAAANAHLMAQI-NH2]” the figure was 0.76.

With “LDVPTNIMNLLFNIAKAKNLRAQAAANAHLMAQI-NH2 [SEQ ID NO: 111, LDVPTNIMNLLFNIAKAKNLRAQAAANAHLMAQI-NH2]”, the Kd (tested as antagonists of h-SCP at 10 μM, read-out: receptor affinity (KA)) was less than 10 µM.
